Measured values taken from PubChem BioAssay (NCI).
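GI50 = concentration required for 50% inhibition of growth. TGI is the concentration that stops growth completely.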

How the values were obtained:
Experiment in all cases: DTP human tumour cell line panel, 384-well format
786-0 renal = system: 786-0 renal
A498 renal = system: A498 renal
A549 NSCLC = system: A549 NSCLC
ACHN renal = system: ACHN renal
BT-549 breast = system: BT-549 breast
CAKI-1 renal = system: CAKI-1 renal
CCRF-CEM leukemia = system: CCRF-CEM leukemia
COLO 205 colon = system: COLO 205 colon
DU-145 prostate = system: DU-145 prostate
EKVX NSCLC = system: EKVX NSCLC
HCC-2998 colon = system: HCC-2998 colon
HCT-116 colon = system: HCT-116 colon
HCT-15 colon = system: HCT-15 colon
HL-60(TB) leukemia = system: HL-60(TB) leukemia
HOP-62 NSCLC = system: HOP-62 NSCLC
HOP-92 NSCLC = system: HOP-92 NSCLC
HS 578T breast = system: HS 578T breast
HT29 colon = system: HT29 colon
IGROV1 ovarian = system: IGROV1 ovarian
K-562 leukemia = system: K-562 leukemia
KM12 colon = system: KM12 colon
LOX IMVI melanoma = system: LOX IMVI melanoma
M14 melanoma = system: M14 melanoma
MALME-3M melanoma = system: MALME-3M melanoma
MCF7 breast = system: MCF7 breast
MDA-MB-231 breast = system: MDA-MB-231 breast
MDA-MB-435 melanoma = system: MDA-MB-435 melanoma
MDA-MB-468 breast = system: MDA-MB-468 breast
MOLT-4 leukemia = system: MOLT-4 leukemia
NCI-H226 lung = system: NCI-H226 lung
NCI-H23 lung = system: NCI-H23 lung
NCI-H322M lung = system: NCI-H322M lung
NCI-H460 NSCLC = system: NCI-H460 NSCLC
NCI-H522 lung = system: NCI-H522 lung
NCI/ADR-RES ovarian = system: NCI/ADR-RES ovarian
OVCAR-3 ovarian = system: OVCAR-3 ovarian
OVCAR-4 ovarian = system: OVCAR-4 ovarian
OVCAR-5 ovarian = system: OVCAR-5 ovarian
OVCAR-8 ovarian = system: OVCAR-8 ovarian
PC-3 prostate = system: PC-3 prostate
RPMI-8226 leukemia = system: RPMI-8226 leukemia
RXF 393 renal = system: RXF 393 renal
SF-268 CNS = system: SF-268 CNS
SF-295 CNS = system: SF-295 CNS
SF-539 CNS = system: SF-539 CNS
SK-MEL-28 melanoma = system: SK-MEL-28 melanoma
SK-MEL-5 melanoma = system: SK-MEL-5 melanoma
SK-OV-3 ovarian = system: SK-OV-3 ovarian
SN12C renal = system: SN12C renal
SNB-19 CNS = system: SNB-19 CNS
SNB-75 CNS = system: SNB-75 CNS
SW-620 colon = system: SW-620 colon
T-47D breast = system: T-47D breast
TK-10 renal = system: TK-10 renal
U251 glioblastoma = system: U251 glioblastoma
UACC-257 melanoma = system: UACC-257 melanoma
UACC-62 melanoma = system: UACC-62 melanoma
UO-31 renal = system: UO-31 renal
SK-MEL-2 melanoma = system: SK-MEL-2 melanoma
SR leukemia = system: SR leukemia

## CC[C@H](C)n1cc(C)c2c(C(=O)NCc3c(C)cc(C)[nH]c3=O)cc(-c3ccc(N4CCNCC4)nc3)cc21
786-0 renal
  GI50: 1.71 µM
  TGI: 3.1 µM
A498 renal
  GI50: 1.94 µM
  TGI: 3.43 µM
A549 NSCLC
  GI50: 1.96 µM
  TGI: 3.92 µM
ACHN renal
  GI50: 4.23 µM
  TGI: 15.6 µM
BT-549 breast
  GI50: 1.67 µM
  TGI: 3.05 µM
CAKI-1 renal
  GI50: 1.76 µM
  TGI: 3.17 µM
CCRF-CEM leukemia
  GI50: 1.53 µM
  TGI: 2.87 µM
COLO 205 colon
  GI50: 1.71 µM
  TGI: 3.1 µM
DU-145 prostate
  GI50: 3.83 µM
  TGI: 12.1 µM
EKVX NSCLC
  GI50: 1.83 µM
  TGI: 3.49 µM
HCC-2998 colon
  GI50: 1.6 µM
  TGI: 2.98 µM
HCT-116 colon
  GI50: 1.79 µM
  TGI: 3.23 µM
HCT-15 colon
  GI50: 1.86 µM
  TGI: 3.48 µM
HL-60(TB) leukemia
  GI50: 2.03 µM
  TGI: 3.47 µM
HOP-62 NSCLC
  GI50: 1.64 µM
  TGI: 3.02 µM
HOP-92 NSCLC
  GI50: 1.83 µM
  TGI: 3.25 µM
HS 578T breast
  GI50: 1.41 µM
  TGI: 2.71 µM
HT29 colon
  GI50: 1.68 µM
  TGI: 3.11 µM
IGROV1 ovarian
  GI50: 1.54 µM
  TGI: 3.67 µM
K-562 leukemia
  GI50: 1.48 µM
  TGI: 2.81 µM
KM12 colon
  GI50: 1.79 µM
  TGI: 3.32 µM
LOX IMVI melanoma
  GI50: 1.64 µM
  TGI: 3.02 µM
M14 melanoma
  GI50: 1.75 µM
  TGI: 3.14 µM
MALME-3M melanoma
  GI50: 1.61 µM
  TGI: 2.97 µM
MCF7 breast
  GI50: 1.52 µM
  TGI: 2.89 µM
MDA-MB-231 breast
  GI50: 1.65 µM
  TGI: 3.06 µM
MDA-MB-435 melanoma
  GI50: 2.07 µM
  TGI: 3.52 µM
MDA-MB-468 breast
  GI50: 1.46 µM
  TGI: 2.79 µM
MOLT-4 leukemia
  GI50: 1.63 µM
  TGI: 2.99 µM
NCI-H226 lung
  GI50: 3.76 µM
  TGI: 14.5 µM
NCI-H23 lung
  GI50: 2.89 µM
  TGI: 7.44 µM
NCI-H322M lung
  GI50: 1.96 µM
  TGI: 4.07 µM
NCI-H460 NSCLC
  GI50: 1.83 µM
  TGI: 3.24 µM
NCI-H522 lung
  GI50: 1.86 µM
  TGI: 3.27 µM
NCI/ADR-RES ovarian
  GI50: 17.7 µM
  TGI: 31.6 µM
OVCAR-3 ovarian
  GI50: 2.25 µM
  TGI: 4.39 µM
OVCAR-4 ovarian
  GI50: 3.58 µM
  TGI: 10.8 µM
OVCAR-5 ovarian
  GI50: 2.62 µM
  TGI: 6.44 µM
OVCAR-8 ovarian
  GI50: 1.81 µM
  TGI: 3.34 µM
PC-3 prostate
  GI50: 3.23 µM
  TGI: 8.54 µM
RPMI-8226 leukemia
  GI50: 1.39 µM
  TGI: 2.7 µM
RXF 393 renal
  GI50: 1.73 µM
  TGI: 3.14 µM
SF-268 CNS
  GI50: 1.62 µM
  TGI: 2.98 µM
SF-295 CNS
  GI50: 1.87 µM
  TGI: 3.32 µM
SF-539 CNS
  GI50: 1.6 µM
  TGI: 2.96 µM
SK-MEL-28 melanoma
  GI50: 2.15 µM
  TGI: 3.6 µM
SK-MEL-5 melanoma
  GI50: 1.63 µM
  TGI: 2.99 µM
SK-OV-3 ovarian
  GI50: 1.86 µM
  TGI: 3.3 µM
SN12C renal
  GI50: 1.78 µM
  TGI: 3.49 µM
SNB-19 CNS
  GI50: 2.11 µM
  TGI: 3.75 µM
SNB-75 CNS
  GI50: 1.35 µM
  TGI: 2.65 µM
SW-620 colon
  GI50: 1.74 µM
  TGI: 3.12 µM
T-47D breast
  GI50: 1.47 µM
  TGI: 2.82 µM
TK-10 renal
  GI50: 1.91 µM
  TGI: 3.64 µM
U251 glioblastoma
  GI50: 1.83 µM
  TGI: 3.25 µM
UACC-257 melanoma
  GI50: 1.63 µM
  TGI: 2.99 µM
UACC-62 melanoma
  GI50: 1.57 µM
  TGI: 2.92 µM
UO-31 renal
  GI50: 13.1 µM
  TGI: 25.8 µM

## Cn1cc(C[C@@H](N)C(=O)O)c2ccccc21
786-0 renal
  GI50: > 100 µM
  TGI: > 100 µM
A498 renal
  GI50: > 100 µM
  TGI: > 100 µM
A549 NSCLC
  GI50: > 100 µM
  TGI: > 100 µM
ACHN renal
  GI50: > 100 µM
  TGI: > 100 µM
BT-549 breast
  GI50: > 100 µM
  TGI: > 100 µM
CAKI-1 renal
  GI50: > 100 µM
  TGI: > 100 µM
CCRF-CEM leukemia
  GI50: > 100 µM
  TGI: > 100 µM
COLO 205 colon
  GI50: > 100 µM
  TGI: > 100 µM
DU-145 prostate
  GI50: > 100 µM
  TGI: > 100 µM
EKVX NSCLC
  GI50: > 100 µM
  TGI: > 100 µM
HCC-2998 colon
  GI50: > 100 µM
  TGI: > 100 µM
HCT-15 colon
  GI50: > 100 µM
  TGI: > 100 µM
HL-60(TB) leukemia
  GI50: > 100 µM
  TGI: > 100 µM
HOP-62 NSCLC
  GI50: > 100 µM
  TGI: > 100 µM
HOP-92 NSCLC
  GI50: > 100 µM
  TGI: > 100 µM
HS 578T breast
  GI50: > 100 µM
  TGI: > 100 µM
HT29 colon
  GI50: > 100 µM
  TGI: > 100 µM
IGROV1 ovarian
  GI50: > 100 µM
  TGI: > 100 µM
KM12 colon
  GI50: > 100 µM
  TGI: > 100 µM
M14 melanoma
  GI50: > 100 µM
  TGI: > 100 µM
MALME-3M melanoma
  GI50: > 100 µM
  TGI: > 100 µM
MCF7 breast
  GI50: > 100 µM
  TGI: > 100 µM
MDA-MB-231 breast
  GI50: > 100 µM
  TGI: > 100 µM
MDA-MB-435 melanoma
  GI50: > 100 µM
  TGI: > 100 µM
MDA-MB-468 breast
  GI50: > 100 µM
  TGI: > 100 µM
MOLT-4 leukemia
  GI50: > 100 µM
  TGI: > 100 µM
NCI-H226 lung
  GI50: > 100 µM
  TGI: > 100 µM
NCI-H23 lung
  GI50: > 100 µM
  TGI: > 100 µM
NCI-H322M lung
  GI50: > 100 µM
  TGI: > 100 µM
NCI-H460 NSCLC
  GI50: > 100 µM
  TGI: > 100 µM
NCI-H522 lung
  GI50: > 100 µM
  TGI: > 100 µM
NCI/ADR-RES ovarian
  GI50: > 100 µM
  TGI: > 100 µM
OVCAR-3 ovarian
  GI50: > 100 µM
  TGI: > 100 µM
OVCAR-4 ovarian
  GI50: > 100 µM
  TGI: > 100 µM
OVCAR-5 ovarian
  GI50: > 100 µM
  TGI: > 100 µM
OVCAR-8 ovarian
  GI50: > 100 µM
  TGI: > 100 µM
PC-3 prostate
  GI50: > 100 µM
  TGI: > 100 µM
RPMI-8226 leukemia
  GI50: > 100 µM
  TGI: > 100 µM
RXF 393 renal
  GI50: > 100 µM
  TGI: > 100 µM
SF-268 CNS
  GI50: > 100 µM
  TGI: > 100 µM
SF-295 CNS
  GI50: > 100 µM
  TGI: > 100 µM
SF-539 CNS
  GI50: > 100 µM
  TGI: > 100 µM
SK-MEL-2 melanoma
  GI50: > 100 µM
  TGI: > 100 µM
SK-MEL-28 melanoma
  GI50: > 100 µM
  TGI: > 100 µM
SK-MEL-5 melanoma
  GI50: > 100 µM
  TGI: > 100 µM
SK-OV-3 ovarian
  GI50: > 100 µM
  TGI: > 100 µM
SN12C renal
  GI50: > 100 µM
  TGI: > 100 µM
SNB-19 CNS
  GI50: > 100 µM
  TGI: > 100 µM
SR leukemia
  GI50: > 100 µM
  TGI: > 100 µM
SW-620 colon
  GI50: > 100 µM
  TGI: > 100 µM
T-47D breast
  GI50: > 100 µM
  TGI: > 100 µM
TK-10 renal
  GI50: > 100 µM
  TGI: > 100 µM
U251 glioblastoma
  GI50: > 100 µM
  TGI: > 100 µM
UACC-257 melanoma
  GI50: > 100 µM
  TGI: > 100 µM
UACC-62 melanoma
  GI50: > 100 µM
  TGI: > 100 µM
